Reference: ChEMBL document CHEMBL1201862, “PubChem BioAssay data set” (2004)
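48-hour exposure; five concentrations; linearly interpolated endpoints. GI50 marks 50% less growth.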 Active and inactive are the calls of the source. Cut-off read from the data, not from the text of the source: active = GI50 up to about 1.1 µM and inactive = higher.

What was measured:
Test in all cases: DTP human tumour cell line panel, 48 h
[1] = test system: 786-0
[2] = test system: A498
[3] = test system: A549
[4] = test system: ACHN
[5] = test system: CAKI-1
[6] = test system: CCRF-CEM
[7] = test system: DLD-1
[8] = test system: DMS-114
[9] = test system: DMS-273
[10] = test system: EKVX
[11] = test system: HCC 2998
[12] = test system: HCT-116
[13] = test system: HCT-15
[14] = test system: HL-60
[15] = test system: HOP-18
[16] = test system: HOP-92
[17] = test system: HT-29
[18] = test system: K562
[19] = test system: KM-20L2
[20] = test system: LOX IMVI
[21] = test system: LXFL 529
[22] = test system: M14
[23] = test system: M19-MEL
[24] = test system: MOLT-4
[25] = test system: Malme-3M
[26] = test system: NCI-H226
[27] = test system: NCI-H23
[28] = test system: NCI-H460
[29] = test system: NCI-H522
[30] = test system: OVCAR-3
[31] = test system: OVCAR-4
[32] = test system: OVCAR-5
[33] = test system: OVCAR-8
[34] = test system: RPMI-8226
[35] = test system: RXF 393
[36] = test system: RXF 631
[37] = test system: SF-295
[38] = test system: SF-539
[39] = test system: SK-MEL-28
[40] = test system: SK-MEL-2
[41] = test system: SK-MEL-5
[42] = test system: SN12C
[43] = test system: SNB-19
[44] = test system: SNB-75
[45] = test system: SNB-78
[46] = test system: SR
[47] = test system: SW-620
[48] = test system: TK-10
[49] = test system: U-251
[50] = test system: UACC-257
[51] = test system: UACC-62
[52] = test system: UO-31
[53] = test system: COLO 205
[54] = test system: HOP-62
[55] = test system: IGROV-1
[56] = test system: KM12
[57] = test system: SF-268
[58] = test system: SK-OV-3
[59] = test system: XF498

CN(c1ccccc1)c1c(Cl)c(=O)oc2c1ccc1occc12
GI50 [1]: > 100 µM (inactive) | GI50 [2]: > 100 µM (inactive) | GI50 [3]: > 100 µM (inactive) | GI50 [4]: > 100 µM (inactive) | GI50 [5]: 53.3 µM (inactive) | GI50 [6]: 64.7 µM (inactive) | GI50 [7]: > 100 µM (inactive) | GI50 [8]: > 100 µM (inactive) | GI50 [9]: > 100 µM (inactive) | GI50 [10]: 33.3 µM (inactive) | GI50 [11]: > 100 µM (inactive) | GI50 [12]: 81.8 µM (inactive) | GI50 [13]: 74 µM | GI50 [14]: 15.6 µM (inactive) | GI50 [15]: > 100 µM (inactive) | GI50 [16]: 67.3 µM (inactive) | GI50 [17]: > 100 µM (inactive) | GI50 [18]: 51.2 µM (inactive) | GI50 [19]: > 100 µM (inactive) | GI50 [20]: 97.3 µM (inactive) | GI50 [21]: > 100 µM (inactive) | GI50 [22]: > 100 µM (inactive) | GI50 [23]: > 100 µM (inactive) | GI50 [24]: 55.2 µM (inactive) | GI50 [25]: > 100 µM (inactive) | GI50 [26]: > 100 µM (inactive) | GI50 [27]: > 100 µM (inactive) | GI50 [28]: > 100 µM (inactive) | GI50 [29]: > 100 µM (inactive) | GI50 [30]: > 100 µM (inactive) | GI50 [31]: > 100 µM (inactive) | GI50 [32]: > 100 µM (inactive) | GI50 [33]: > 100 µM (inactive) | GI50 [34]: 86.9 µM (inactive) | GI50 [35]: > 100 µM (inactive) | GI50 [36]: > 100 µM (inactive) | GI50 [37]: > 100 µM (inactive) | GI50 [38]: > 100 µM (inactive) | GI50 [39]: > 100 µM (inactive) | GI50 [40]: > 100 µM (inactive) | GI50 [41]: > 100 µM (inactive) | GI50 [42]: > 100 µM (inactive) | GI50 [43]: 59.7 µM (inactive) | GI50 [44]: > 100 µM (inactive) | GI50 [45]: > 100 µM (inactive) | GI50 [46]: 44 µM (inactive) | GI50 [47]: > 100 µM (inactive) | GI50 [48]: > 100 µM (inactive) | GI50 [49]: > 100 µM (inactive) | GI50 [50]: > 100 µM (inactive) | GI50 [51]: 40.6 µM (inactive) | GI50 [52]: > 100 µM (inactive)

NC1=NN(c2ccccc2)C(=O)C1C(=O)C(=O)Nc1ccc(Cl)cc1 (configuration not stated)
GI50 [1]: > 100 µM (inactive) | GI50 [2]: > 100 µM (inactive) | GI50 [3]: > 100 µM (inactive) | GI50 [4]: > 100 µM (inactive) | GI50 [5]: > 100 µM (inactive) | GI50 [6]: > 100 µM (inactive) | GI50 [53]: > 100 µM (inactive) | GI50 [7]: > 100 µM (inactive) | GI50 [8]: > 100 µM (inactive) | GI50 [9]: > 100 µM (inactive) | GI50 [10]: > 100 µM (inactive) | GI50 [11]: > 100 µM (inactive) | GI50 [12]: > 100 µM (inactive) | GI50 [13]: > 100 µM | GI50 [14]: > 100 µM (inactive) | GI50 [15]: > 100 µM (inactive) | GI50 [54]: > 100 µM (inactive) | GI50 [16]: > 100 µM (inactive) | GI50 [17]: > 100 µM (inactive) | GI50 [55]: > 100 µM (inactive) | GI50 [18]: > 100 µM (inactive) | GI50 [19]: > 100 µM (inactive) | GI50 [56]: > 100 µM (inactive) | GI50 [20]: > 100 µM (inactive) | GI50 [21]: > 100 µM (inactive) | GI50 [22]: > 100 µM (inactive) | GI50 [23]: > 100 µM (inactive) | GI50 [24]: > 100 µM (inactive) | GI50 [25]: > 100 µM (inactive) | GI50 [26]: > 100 µM (inactive) | GI50 [27]: > 100 µM (inactive) | GI50 [28]: > 100 µM (inactive) | GI50 [29]: > 100 µM (inactive) | GI50 [30]: > 100 µM (inactive) | GI50 [31]: > 100 µM (inactive) | GI50 [32]: > 100 µM (inactive) | GI50 [33]: > 100 µM (inactive) | GI50 [34]: > 100 µM (inactive) | GI50 [35]: > 100 µM (inactive) | GI50 [36]: > 100 µM (inactive) | GI50 [57]: > 100 µM (inactive) | GI50 [37]: > 100 µM (inactive) | GI50 [38]: > 100 µM (inactive) | GI50 [39]: > 100 µM (inactive) | GI50 [40]: > 100 µM (inactive) | GI50 [41]: > 100 µM (inactive) | GI50 [58]: > 100 µM (inactive) | GI50 [42]: > 100 µM (inactive) | GI50 [44]: > 100 µM (inactive) | GI50 [45]: > 100 µM (inactive) | GI50 [46]: > 100 µM (inactive) | GI50 [47]: > 100 µM (inactive) | GI50 [48]: > 100 µM (inactive) | GI50 [49]: > 100 µM (inactive) | GI50 [50]: > 100 µM (inactive) | GI50 [51]: > 100 µM (inactive) | GI50 [52]: > 100 µM (inactive)

Nc1ccc(C2=N/C(=C\c3cccc(N)c3)C(=O)O2)cc1
GI50 [1]: > 100 µM (inactive) | GI50 [3]: > 100 µM (inactive) | GI50 [4]: > 100 µM (inactive) | GI50 [5]: > 100 µM (inactive) | GI50 [6]: 67.3 µM (inactive) | GI50 [53]: > 100 µM (inactive) | GI50 [7]: > 100 µM (inactive) | GI50 [8]: > 100 µM (inactive) | GI50 [10]: > 100 µM (inactive) | GI50 [11]: > 100 µM (inactive) | GI50 [13]: > 100 µM | GI50 [14]: 57.5 µM (inactive) | GI50 [16]: > 100 µM (inactive) | GI50 [17]: > 100 µM (inactive) | GI50 [55]: > 100 µM (inactive) | GI50 [18]: > 100 µM (inactive) | GI50 [19]: > 100 µM (inactive) | GI50 [56]: > 100 µM (inactive) | GI50 [21]: > 100 µM (inactive) | GI50 [22]: > 100 µM (inactive) | GI50 [23]: > 100 µM (inactive) | GI50 [24]: > 100 µM (inactive) | GI50 [25]: > 100 µM (inactive) | GI50 [27]: > 100 µM (inactive) | GI50 [29]: > 100 µM (inactive) | GI50 [30]: > 100 µM (inactive) | GI50 [31]: > 100 µM (inactive) | GI50 [32]: > 100 µM (inactive) | GI50 [33]: > 100 µM (inactive) | GI50 [35]: > 100 µM (inactive) | GI50 [36]: > 100 µM (inactive) | GI50 [57]: > 100 µM (inactive) | GI50 [37]: > 100 µM (inactive) | GI50 [38]: > 100 µM (inactive) | GI50 [39]: > 100 µM (inactive) | GI50 [40]: > 100 µM (inactive) | GI50 [41]: > 100 µM (inactive) | GI50 [58]: > 100 µM (inactive) | GI50 [42]: > 100 µM (inactive) | GI50 [43]: > 100 µM (inactive) | GI50 [45]: > 100 µM (inactive) | GI50 [46]: > 100 µM (inactive) | GI50 [47]: > 100 µM (inactive) | GI50 [48]: > 100 µM (inactive) | GI50 [49]: > 100 µM (inactive) | GI50 [51]: > 100 µM (inactive) | GI50 [52]: > 100 µM (inactive) | GI50 [59]: > 100 µM (inactive)
